From patent US6303619A, “Meta-substituted acidic 8-phenylxanthine antagonists of A3 human adenosine receptors” (priority 1998, dated 2001)
Blank lines part the entries; values can stand above or below the compound they belong to.

Experiments:
[1] = test system: A3 adenosine receptor; experiment: mast cell degranulation in an animal model; format: in vivo
Source text: (§1) The release of enzymes, bioactive amines and arachidonic acid metabolites following mast cell activation causes vasoconstriction, edema, leukocyte accumulation, and ultimately, tissue damage. Mast cell degranulation is a component of myocardian reperfusion injury, hypersensitivity reactions (asthma, allergic rhinitis, and urticaria), ischemic bowel disease, autoimmune inflammation, and atopic dermatitis. Selective A3 adenosine receptor antagonists can be used to treat or prevent these diseases and pathologic effects that result from mast cell degranulation.
as §1, with “of: myocardial” for “of myocardian”, “inflammations, 20” for “inflammation,”, “The present invention relates to the use of highly specific meta-substituted 8-phenylxanthine” for “Selective”, “antagonists” for “antagonists can be used”

[2] = test system: hamster cheek pouch anerioles; experiment: vasoconstriction of hamster cheek pouch arterioles
Source text: The constrictor response has classically been attributed to A1 adenosine receptor stimulation or interactions with the renin-angiotensin system. […] In the present invention, specific blockade of the A3 subtype of the adenosine receptor by a meta-substitutedphenylxanthine is effective to block the vasoconstrictive response induced through adenosine activation of this receptor subtype. The use of a meta-substituted phenylxanthine specific inhibitor of the A3 adenosine receptor subtype is effective to inhibit effects induced by adenosine mediated mast cell degranulation, and that disease states including but not limited to myocardial ischemia (Ito et al., Am. J. Physiol. 264 (Heart Circ. Physiol. 33):H I 346-H 1354, 1993), mastcell-dependent inflammation (Raud, J., Acta. Physiol. Scand. 135 (Suppl '578):I-58, 1989), brain arteriole diameter constriction (Rosenblum, W. I., Brain Res. 49:75-82, 1973), and the release of allergic mediators (Ramkumar et al., J. Biol. Chem. 268:16887-16890, 1993), are all amenable to prevention and treatment by contacting A3 receptor bearing mast cells with an amount of a meta-substituted phenylxanthine selective A3 inhibitor effective to prevent mast cell degranulation.

[3] = test system: asthmatics; conditions: not nonasthmatics; cited from earlier work
[4] = test system: mast cells isolated from rat peritoneum; conditions: cited from earlier work
[5] = molecular target: T1, human A3 adenosine receptor (Homo sapiens, UniProt P0DMS8); experiment: inhibition of forskolin-stimulated cAMP accumulation in stably transfected CHO cells expressing the human A3 receptor; format: cell-based
T1 construct: clone HS-21a contained the complete open reading frame corresponding to the human homolog of the rat A3 adenosine receptor; expressed in transfected cells; host or cells: CHO cells stably transfected with HS-21a cDNA
T1 sequence (P0DMS8 1-318): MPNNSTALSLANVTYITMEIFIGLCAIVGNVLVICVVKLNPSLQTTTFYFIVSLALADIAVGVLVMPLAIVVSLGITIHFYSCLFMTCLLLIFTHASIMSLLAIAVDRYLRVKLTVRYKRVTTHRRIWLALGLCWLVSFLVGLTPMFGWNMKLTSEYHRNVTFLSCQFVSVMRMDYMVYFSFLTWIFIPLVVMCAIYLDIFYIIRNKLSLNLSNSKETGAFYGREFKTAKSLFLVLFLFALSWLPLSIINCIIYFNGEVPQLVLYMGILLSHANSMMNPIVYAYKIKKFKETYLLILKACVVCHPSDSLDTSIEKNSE
Method: The human A3 adenosine receptor from a striatal cDNA library can be cloned using a probe derived from the homologous rat sequence.
cAMP Accumulation in Stable CHO Cell Lines
The changes in cAMP accumulation can alternatively be measured in stably transfected CHO cells expressing the human adenosine receptor subtypes. CHO cells are washed twice in phosphate buffered saline (PBS) and detached in 0.2% EDTA in PBS. The cells are pelleted at 800 rpm for 10 min and resuspended in KRH buffer (140 mM NaCl/5 mM KCl/2 mM CaCl2 /1.2 mM MgSO4 /1.2 mM KH2 PO4 /6 mM glucose/25 mM Hepes buffer, pH 7.4). The cells are washed once in KRH buffer and resuspended at 10^7 cells/mL. The cell suspension (100 μl) is mixed with 100 μl of KRH buffer containing 200 uM Ro 20-1724 and incubated at 37° C. for 10 minutes. Adenosine (10 uM) was added in 200 μl KRH buffer containing 200 uM Ro 20-1724 and incubated at 37° C. for 20 minutes. After the incubation, 400 μl of 0.5 mM NaOAc (pH 6.2) was added and the sample was boiled for 20 minutes. The supernatant was recovered by centrifugation for 15 minutes and stored at -70° C. cAMP levels were determined by radiommunoassay (RIANEN kit, DuPont/NEN) using the to acetylation protocol. The effect of antagonists on cAMP accumulation are measured by preincubation for 20 minutes before adding adenosine.

[6] = test system: sheep A3 adenosine receptor; conditions: cited from earlier work
[7] = molecular target: T1, human A3 adenosine receptor; experiment: 125I-ABA binding to membranes of stably transfected CHO cells expressing the human A3 adenosine receptor (HS-21a); conditions: 1 mM nonradioactive I-ABA
[8] = test system: non-transfected CHO cells; experiment: 125I-ABA binding to membranes from non-transfected CHO cells
Method: Membranes were prepared from stable CHO cell lines in 10 mM Hepes, pH 7.4 containing 0.1 mM benzamidine and 0.1 mM PMSF as described (Mahan, L. C. et al., (1991) Mol. Pharinacol. 40, 1-7). Pellets were resuspended in 5 mM Hepes, pH 7.4/5 mM MgCl2 /0.1 mM benzarnidine/0.1 mM PMSF at a protein concentration of 1-2 mg/mL and were incubated with adenosine deaminase (Boehringer Mannheim), 2 U/mL at 37° C. for 20 minutes. Saturation binding of ^125 I-ABA was carried out on 50 μg of membranes for 120 minutes at 25° C. in a total volume of 100 μl. […] Nonspecific binding was measured in the presence of 1 uM I-ABA. The KD and Bmax values were calculated by the EBDA program (McPherson, G. A. (1983) Computer Programs for Biomedicine 17, 107-114). Competition binding of agonists and antagonists was determined with ^125 I-ABA (0.17-2.0 nM, 2000 Ci/mmol). […] Binding data were analyzed and competition curves were constructed by use of the nonlinear regression curve fitting program Graph PAD InPlot, Version 3.0 (Graph Pad Software, San Diego). Ki values were calculated using the Cheng-Prusoff derivation (Cheng, Y. C. and Prusoff, H. R. (1973) Biochem. Pharmacol. 22, 3099-3108.).
The binding properties of the receptor encoded b HS-21a were evaluated on membranes prepared from CHO cells stably expressing the HS-21a cDNA. […]

[9] = molecular target: T1, human A3 adenosine receptor; experiment: 125I-ABA binding to membranes of stably transfected CHO cells expressing the human A3 adenosine receptor (HS-21a)
Method: Membranes were prepared from transiently transfected COS7 cells […] after transfection or from G418-selected stably transfected CHO or HEK 293 cells. Cells were harvested in 1 mM EDTA in phosphate buffered saline and centrifuged at 2000×g for 10 minutes. The cell pellet was washed once with phosphate buffered saline. The cell pellet was resuspended in 2 mL of 5 mM Tris, pH 7.6/5mM MgCl2. Membranes were prepared from the cells by freeze-thaw lysis in which the suspension was frozen in a dry ice/ethanol bath and thawed at 25° C. twice. The suspension was homogenized after adding an additional 2 mL of 5 mM Tris, pH 7.6/5 mM MgCl2, in a glass dounce homogenizer with 20 strokes. The membranes were pelleted at 40,000×g at 4° C. for 20 minutes. The membrane pellet was resuspended at a protein concentration of 1-2 mg/mL in binding assay buffer, 50 mM Tris, pH 7.6/10 mM MgCl2. Protein concentration was determined by the method of Bradford ((1976) Anal. Biochem. 72: 248-250). […] Saturation binding of [^125 I]-N^6 -aminiobenizyladenosine (125I-ABA) or [^125 I]-N^6 -2-(4-amino-3-iodophenyl)ethyladenosine (APNEA) was performed on membranes prepared from pSVLA3 transfected COS7 cells. Membranes (100 μg) were incubated in the presence of 0.2 U/mL adenosine deaminase with increasing concentrations of ^125 I-ABA in the range of 0.1-30 nM for 120 minutes at 25° C. in a total volume of 500 μl. The binding assay was terminated by rapid filtration and three washes with ice-cold 50 mM Tris, pH 7.6/10 mM MgCl2 on a Skatron cell harvester equipped with a receptor binding flitermat (SKATRON INSTRUMENTS, INC). Non-specific binding was determined on non-transfected cells. Bound radioactivity was measured by scintillation counting in Ready Safe Scintillation Cocktail (BECKMAN).
The 1.7 kb HS-21a cDNA (A3) was subcloned as a SalI-BamHl fragment into the expression vector pCMV5 (Mumby, S. M., Heukeroth, R. O., Gordon, J. I. and Gilman, A. G. (1990) Proc. Natl. Acad. Sci. USA 87, 728-732.) creating the vector pCMV5-A3. CHO or HEK 293 cells stably expressing the human HS-21 a cDNA were prepared by co-transfection of 15 μg pCMV5-A3 and 1 μg pWLneo (Stratagene) using the calcium phosphate method. Stable cell lines were also generated using EBV based mammalian expression vectors, pREP (INVITROGEN). Neomycin resistant colonies were selected in 1 mg/mL G418 (GIBCO). Stable colonies were screened for expression of HS-21a by ^125 I-ABA binding.
Membranes were prepared from stable CHO cell lines in 10 mM Hepes, pH 7.4 containing 0.1 mM benzamidine and 0.1 mM PMSF as described (Mahan, L. C. et al., (1991) Mol. Pharinacol. 40, 1-7). Pellets were resuspended in 5 mM Hepes, pH 7.4/5 mM MgCl2 /0.1 mM benzarnidine/0.1 mM PMSF at a protein concentration of 1-2 mg/mL and were incubated with adenosine deaminase (Boehringer Mannheim), 2 U/mL at 37° C. for 20 minutes. Saturation binding of ^125 I-ABA was carried out on 50 μg of membranes for 120 minutes at 25° C. in a total volume of 100 μl. The assay was terminated by rapid filtration and three washes with ice-cold binding buffer on a Skatron harvester equipped with a receptor binding filtermat (Skatron Instruments, Inc.). The specific activity of ^125 I-ABA, initially 2,200 Ci/mmol, was reduced to 100 Ci/mmol with nonradioactive I-ABA for saturation analysis. Nonspecific binding was measured in the presence of 1 uM I-ABA. The KD and Bmax values were calculated by the EBDA program (McPherson, G. A. (1983) Computer Programs for Biomedicine 17, 107-114). Competition binding of agonists and antagonists was determined with ^125 I-ABA (0.17-2.0 nM, 2000 Ci/mmol). […] Binding data were analyzed and competition curves were constructed by use of the nonlinear regression curve fitting program Graph PAD InPlot, Version 3.0 (Graph Pad Software, San Diego).

[10] = 125I-ABA saturation binding, HS-21a stable CHO cell membranes

Structure (SMILES): Nc1ncnc2c1ncn2[C@@H]1O[C@H](CO)[C@@H](O)[C@H]1O [Adenosine, adenosine]
- induction of mast cell degranulation [1]: induce mast cell degranulation
- vasoconstrictor action [2]: vasoconstrictor action
- bronchoconstriction [3]: produces bronchoconstriction in asthmatics but not in nonasthmatics
- release of granule contents [4]: potentiates the release of granule contents
- inhibition of forskolin-stimulated cAMP accumulation ([5]; stably transfected CHO cells, human A3): 30-40%

- agonist character (partial agonist) ([5]; human A3, stably transfected CHO cells): partial agonist
- prevention of specific binding of 125I-ABA [7]: prevented
Structure (SMILES): Nc1ccc(CNc2ncnc3c2ncn3[C@@H]2O[C@H](CO)[C@@H](O)[C@H]2O)cc1I [I-ABA]
- agonist affinity order [6]: I-ABA>APNEA>NECA≥R-PIA>>CPA

- Bmax [9, 10]: 258 fmol/mg protein
- Hill coefficient [9, 10]: 0.99
- agonist activity inferred from effect of uncoupling reagents on binding ([9]; HS-21a in stable CHO cell line): exhibits some agonist activity
Structure (SMILES): Nc1ccc(CNc2ncnc3c2ncn3[C@@H]2O[C@H](CO)[C@@H](O)[C@H]2O)cc1[125I] [^125 I-ABA, N^6-(4-amino-3^125 iodobenzyl)adenosine]
- specific binding to non-transfected cells [8]: No specific binding
- binding / affinity of ligands in words [6]: binds
